From patent US20240209022A1, “NOVEL PEPTIDE HAVING ANTI-INFLAMMATORY AND TISSUE REGENERATIVE ACTIONS” (KOREA RESEARCH INSTITUTE OF BIOSCIENCE AND BIOTECHNOLOGY, priority 2020, published 2024)

Columns and labels:
[1] = system: collagen induced arthritis (CIA) model; assay: Collagen induced arthritis (CIA) rheumatoid arthritis model; type: in vivo, DBA/1J mice; details: vs PBS buffer group; for thickness of the ankle joint: at the end of the experiment
[2] = system: non-alcoholic hepatitis model; assay: High-fat diet-induced non-alcoholic steatohepatitis model, liver gene expression; type: in vivo, C57BL/6J mice; details: RT-qPCR; vs PBS buffer group
Experimental: A non-alcoholic hepatitis model was induced by feeding a high-fat diet to 8-week-old SPF male C57BL/6J mice. The experiment for groups administered with Amuc_1409 and PEP001 to PEP005 was performed as follows. Mice fed a high-fat diet for 45 weeks were fed a high-fat diet for an additional 3 weeks, and Amuc_1409 was dissolved in PBS buffer at a concentration of 2.4 μM and then orally administered to the mice by 150 μL per animal at the same time once a day until the end of the experiment, or mice fed a high-fat diet for 8 weeks were fed a high-fat diet for an additional 3 weeks, and PEP001, PEP002, PEP003, PEP004, or PEP005 was dissolved in PBS buffer at a concentration of 2.4 μM and then orally administered to the mice by 150 μL per animal at the same time once a day until the end of the experiment. To the control group, PBS buffer was orally administered in the same manner. The experiment for groups administered with PEP006 to PEP013 was performed as follows. The non-alcoholic hepatitis model was induced by ad libitum feeding of a high-fat diet for 32, 50, or 53 weeks. Mice fed a high-fat diet for 50 weeks were fed a high-fat diet for an additional 3 weeks, and a novel tetrapeptide PEP006, PEP007, PEP008, PEP009, or PEP010 was dissolved in PBS buffer at a concentration of 0.2 μg/150 μL and then orally administered to the mice by 150 μL per animal at the same time until the end of the test, and mice fed a high-fat diet for 53 weeks were fed a high-fat diet for an additional 3 weeks, and a novel […] PEP011, PEP012, or PEP013 was dissolved in PBS buffer at a concentration of 0.2 μg/150 μL and then orally administered to the mice by 150 μL per animal at the same time until the end of the test. To the control group, PBS buffer was orally administered in the same manner. At the end of the experiment, a part of the liver harvested was homogenized with Trizol to extract RNA. Reverse transcriptase was added to the obtained RNA and reacted to synthesize cDNA, and SYBR Green and primers were added to perform quantitative real-time PCR (RT-qPCR), and then the expression levels of genes such as Tnfα, Il-1β, Il-10, and Il-1rn were quantified.

[3] = system: gastritis/gastric ulcer model; assay: HCl/ethanol gastritis/gastric ulcer model; type: in vivo, C57BL/6J mice; details: vs PBS buffer group; for degree of gastric mucosal damage (score): oral, 1 hour after HCl/ethanol
Experimental: For a gastritis/gastric ulcer model, 7-week-old male C57BL/6J mice were used, and from 3 days before induction, the peptides of the present invention were dissolved in PBS buffer and then orally administered to the mice by 150 μL per animal at the same time once a day. Amuc_1409 or PEP001, PEP002, PEP003, PEP004, or PEP005 was dissolved in PBS buffer at a concentration of 6.7 μM, and novel tetrapeptides PEP006, PEP007, PEP008, PEP009, and PEP010 and novel tripeptides PEP011, PEP012, and PEP013 were each dissolved in PBS buffer at a concentration of 0.15 μg/150 μL (PEP006) or 0.2 μg/150 μL (PEP007, PEP008, PEP009, PEP010, PEP011, PEP012, and PEP013). For the induction of acute gastritis/gastric ulcer, 0.3 M HCl/60% ethanol was orally administered to the mice by 0.2 mL for each, the tissue was harvested after 1 hour, photographs of the inner surface of the stomach were taken, and the degree of damage to the stomach was compared. Measurements of gastritis/gastric ulcer indexes were converted into scores according to the degree of mucosal damage. A score of 0 was given if there was no damage, a score of 1 was given to an insignificant circle-shaped hemorrhagic corrosion site of less than 5 mm, a score of 2 was given to a hemorrhagic corrosion site with a length more than 5 mm, and a score of 3 was given to one or more hemorrhagic corrosion sites corresponding to the score of 2, a score of 4 was given to a hemorrhagic corrosion of more than 5 mm in length and less than 2 mm in width, a score of 5 was given to 2 to 3 hemorrhagic corrosions corresponding to the score of 4, a score of 6 was given to 4 to 5 hemorrhagic corrosions corresponding to the score of 4, a score of 7 was given to 6 or more hemorrhagic corrosions corresponding to the score of 4, and a score of 8 was given if there was hemorrhagic corrosion throughout the gastric mucosa. In order to confirm additional anti-inflammatory activity of the administered peptides, mRNA expression of inflammation-related genes, Tnfα, Il-1β, iNos, Cox2, and Il-10, in the gastric mucosal tissue was examined.

Molecule | thickness of the ankle joint [1] | arthritis index (clinical score by date) [1] | swelling of the hind paws by macrophotography [1] | Il-1p gene expression in liver tissue [2] | degree of gastric mucosal damage (score) [3] | 11-10, which is an anti-inflammatory index (liver gene expression) [2] | Cox2 expression in gastric mucosal tissue ([3]; RT-qPCR) | Il-1p expression in gastric mucosal tissue ([3]; RT-qPCR) | Tnfα mRNA expression in gastric mucosal tissue ([3]; RT-qPCR) | iNos mRNA expression in gastric mucosal tissue ([3]; RT-qPCR) | Tnfα gene expression in liver tissue [2] | arthritis index ([1]; after day 30 until the experiment end day) | arthritis index ([1]; day 30 after the first CII injection) | histopathological changes in hind paw tissue (H&E): inflammatory cell infiltration, synovial proliferation, pannus formation [1] | quantitative histopathological arthritis index [1] | Il-1rn, additional anti-inflammatory index (liver gene expression) [2] | Il-10 mRNA expression in gastric mucosal tissue ([3]; RT-qPCR)
AGS [PEP012] | significantly decreased | significantly decreased from day 32 after the first CII injection to the experiment end day | relieved overall | tended to decrease | significantly decreased |  |  |  |  |  |  |  |  |  |  |  | 
AVSSI (PEP002) | significantly decreased | significantly decreased from day 26 after the first CII injection to the experiment end day | reduced overall | significantly decreased | significantly decreased | tended to increase close to a significant level | significantly decreased | significantly decreased | significantly decreased | significantly decreased |  |  |  |  |  |  | 
KGAY (PEP003) | significantly decreased | significantly decreased from day 26 after the first CII injection to the experiment end day | reduced overall | significantly decreased | significantly decreased | significantly increased | significantly decreased | significantly decreased | significantly decreased | significantly decreased | significantly decreased |  |  |  |  |  | 
AVS (AVSSIKGAY) [PEP004] | significantly decreased | significantly decreased from day 32 after the first CII injection to the experiment end day | reduced overall | decreased close to a significant level | significantly decreased | significantly increased | significantly decreased | significantly decreased | significantly decreased | significantly decreased | significantly decreased |  |  |  |  |  | 
GAY [PEP005] | significantly decreased | significantly decreased from day 28 after the first CII injection to the experiment end day | reduced overall | significantly decreased | significantly decreased | significantly increased | significantly decreased | significantly decreased | significantly decreased | significantly decreased | significantly decreased |  |  |  |  |  | 
Amuc_1409: SEQ ID NO: 15, functional fragment obtained by eliminating the leader sequence from SEQ ID NO: 14; protein derived from Akkermansia muciniphila (protein, Amuc_1409_fragment, protein derived from Akkermansia muciniphila) IPESSVPAAAVSSIKGAYPNAGPIEWDSEMHGMERIYEAEFRINGFQFDVKIAPDGKIVRIKEEIAASSLPEAVRASVLKRYPGCRIKEAEKITEGELVRYKVEVADSRDDYDVLIAPDGNILHVDR | significantly decreased |  | reduced overall | significantly decreased | significantly decreased | significantly increased |  |  | significantly decreased | significantly decreased |  | significantly decreased | decreased close to a significant level | significantly diminished | significantly decreased or tended to decrease | significantly increased | increased
